Key:
Format in all cases: in vivo
Plasmopara viticola [1] = test: D-1a) residual-protective action against Plasmopara viticola on vines; details: Plasmopara viticola, 144 h; 200 ppm; test D-1a) residual-protective; vine seedlings; evaluated after 6 days; read-out: inhibit fungal infestations
Experimental: (§1) D-1: Action Against Plasmopara viticola on Vines
(§2) a) Residual-protective Action
Vine seedlings are sprayed at the 4- to 5-leaf stage with a spray mixture (0.02% active ingredient) prepared from a wettable powder formulation of the test compound. After 24 hours, the treated plants are infected with a sporangia suspension of the fungus. Fungus infestation is evaluated after incubation for 6 days at 95-100% relative humidity and +20° C.

Phytophthora [2] = test: D-2a) residual-protective action against Phytophthora on tomato plants; details: Phytophthora, 120 h; 200 ppm; test D-2a) residual-protective, evaluated after 5 days, read-out: inhibit fungal infestations
Experimental: (§3) D-2: Action Against Phytophthora on Tomato Plants
as §2
After a cultivation period of 3 weeks, tomato plants are sprayed with a spray mixture (0.02% active ingredient) prepared from a wettable powder formulation of the test compound. After 48 hours, the treated plants are infected with a sporangia suspension of the fungus. Fungus infestation is evaluated after incubation of the infected plants for 5 days at 90-100% relative humidity and +20° C.

Phytophthora [3] = test: D-3a) residual-protective action against Phytophthora on potato plants; details: Phytophthora, 96 h; 200 ppm; test D-3a) residual-protective; potato plants (Bintje); evaluated after 4 days; read-out: inhibit fungal infestations
Experimental: (§4) D-3: Action Against Phytophthora on Potato Plants
as §2
2-3 week old potato plants (Bintje variety) are sprayed with a spray mixture (0.02% active ingredient) prepared from a wettable powder formulation of the test compound. After 48 hours, the treated plants are infected with a sporangia suspension of the fungus. Fungus infestation is evaluated after incubation of the infected plants for 4 days at 90-100% relative humidity and +20° C.

Plasmopara viticola [4] = test: D-1b) residual-curative action against Plasmopara viticola on vines; details: Plasmopara viticola, 144 h; 200 ppm; test D-1b) residual-curative; vine seedlings; evaluated 6 days after infection; read-out: inhibit fungal infestations
Experimental: as §1
b) Residual-curative Action
Vine seedlings are infected at the 4- to 5-leaf stage with a sporangia suspension of the fungus. After incubation for 24 hours in a humidity chamber at 95-100% relative humidity and +20° C., the infected plants are dried and sprayed with a spray mixture (0.02% active ingredient) prepared from a wettable powder formulation of the test compound. After the spray coating has dried, the treated plants are placed in the humidity chamber again.
Fungus infestation is evaluated 6 days after infection.

Phytophthora [5] = test: D-2b) systemic action against Phytophthora on tomato plants; details: Phytophthora, 96 h; 200 ppm; test D-2b) systemic (soil watering), evaluated after 4 days, read-out: inhibit fungal infestations
Experimental: as §3
After a cultivation period of 3 weeks, tomato plants are watered with a spray mixture (0.02% active ingredient based on the volume of the soil) prepared from a wettable powder formulation of the test compound. […] After 96 hours, the treated plants are infected with a sporangia suspension of the fungus. Fungus infestation is evaluated after incubation of the infected plants for 4 days at 90-100% relative humidity and +20° C. […] Compounds E1.003, E1.004, E1.009, E1.011, E1.012, E1.014, E1.018, E1.019, E1.020, E1.021, E1.022, E1.023, E1.025, E1.031, E1.032, E1.033, E1.038, E1.040, E1.044, E1.045, E1.049, E1.050, E1.053, E1.055, E1.057, E1.064, E1.085, E1.089, E1.090, E1.091, E1.102, E1.08, E1.110, E1.112, E1.121, E1.125, E1.129, E1.139 and E1.141 at 200 ppm inhibit fungal infestations in both tests D-2a) and D-2b) by 80-100%.

Phytophthora [6] = test: D-3b) systemic action against Phytophthora on potato plants; details: Phytophthora, 96 h; 200 ppm; test D-3b) systemic (soil watering); potato plants (Bintje); evaluated after 4 days; read-out: inhibit fungal infestations
Experimental: as §4
2-3 week old potato plants (Bintje variety) are watered with a spray mixture (0.02% active ingredient based on the volume of the soil) prepared from a wettable powder formulation of the test compound. […] After 48 hours, the treated plants are infected with a sporangia suspension of the fungus. Fungus infestation is evaluated after incubation of the infected plants for 4 days at 90-100% relative humidity and +20° C. Fungal infestation is effectively controlled with compounds of Tables 1 to 35. Compounds E1.003, E1.004, E1.009, E1.011, E1.012, E1.019, E1.020, E1.021, E1.022, E1.025, E1.031, E1.032, E1.033, E1.038, E1.045, E1.049, E1.050, E1.053, E1.085, E1.089, E1.090, E1.091, E1.102, E1.110, E1.112, E1.121, E1.125, E1.129 at 200 ppm inhibit fungal infestations in both tests D-3a) and D-3b) by 80-100%.

Measured: inhibition at 200 ppm

C#CCOc1ccc(CCNC(=O)C(OCC=C)c2ccc(Cl)cc2)cc1OC (stereo not drawn) [Compound E1.009, 2-allyloxy-2-(4-chloro-phenyl)-N-[2-(3-methoxy-4-prop-2-ynyloxy-phenyl)-ethyl]-acetamide]
80 to 100%: all assays above

C#CCOC(C(=O)NCCc1ccc(OCC#CCC)c(OC)c1)c1ccc(Br)cc1 (stereo not drawn) [Compound E1.023, 2-(4-bromo-phenyl)-N-[2-(3-methoxy-4-pent-2-ynyloxy-phenyl)-ethyl]2-prop-2-ynyloxy-acetamide]
80 to 100%: Plasmopara viticola [1] | Phytophthora [2] | Plasmopara viticola [4] | Phytophthora [5]

C#CCOc1ccc(CCNC(=O)C(OCC#C)c2ccc(C(F)(F)F)cc2)cc1OC (stereo not drawn) [Compound E1.050, N-[2-(3-methoxy-4-prop-2-ynyloxy-phenyl)-ethyl]-2-prop-2-ynyloxy-2-(4-trifluoromethyl-phenyl)-acetamide]
80 to 100%: all assays above

C#CCOc1ccc(CCNC(=O)C(OCC#C)c2ccc(Cl)c(F)c2)cc1OC (stereo not drawn) [Compound E1.091, 2-(3-fluoro-4-chloro-phenyl)-N-[2-(3-methoxy-4-prop-2-ynyloxy-phenyl)-ethyl]-2-prop-2-ynyloxy-acetamide]
80 to 100%: all assays above

C#CCOc1ccc(CCNC(=O)C(OCC#C)c2ccc(Cl)c(Cl)c2)cc1OC (stereo not drawn) [Compound E1.102, 2-(3,4-dichloro-phenyl)-N-[2-(3-methoxy-4-prop-2-ynyloxy-phenyl)-ethyl]-2-prop-2-ynyloxy-acetamide]
80 to 100%: all assays above

C#CCOc1ccc(CCNC(=O)C(OCC)c2ccc(Br)cc2)cc1OC (stereo not drawn) [Compound E1.020, 2-(4-bromo-phenyl)-2-ethoxy-N-[2-(3-methoxy-4-prop-2-ynyloxy-phenyl)-ethyl]-acetamide]
80 to 100%: all assays above

C#CCOc1ccc(CCNC(=O)C(OCC#C)c2ccc(Cl)cc2)cc1OC (stereo not drawn) [Compound E1.011, 2-(4-chloro-phenyl)-N-[2-(3-methoxy-4-prop-2-ynyloxy-phenyl)-ethyl]-2-prop-2-ynyloxy-acetamide]
80 to 100%: all assays above

C#CCOc1ccc(CCNC(=O)C(OCC#CC)c2ccc(Cl)cc2)cc1OC (stereo not drawn) [Compound E1.014, 2-but-2-ynyloxy-2-(4-chloro-phenyl)-N-[2-(3-methoxy-4-prop-2-ynyloxy-phenyl)-ethyl]-acetamide]
80 to 100%: Plasmopara viticola [1] | Phytophthora [2] | Plasmopara viticola [4] | Phytophthora [5]

C#CCOc1ccc(CCNC(=O)C(OCOCC)c2ccc(Cl)cc2)cc1OC (stereo not drawn) [Compound E1.018, 2-(4-chloro-phenyl)-2-ethoxymethoxy-N-[2-(3-methoxy-4-prop-2-ynyloxy-phenyl)-ethyl]-acetamide]
80 to 100%: Plasmopara viticola [1] | Phytophthora [2] | Plasmopara viticola [4] | Phytophthora [5]
